Marks after values point to notes of the source that are not given here.
Test system: Crl:CoBs CD(SD) rats
Test: thirty-day dose range finding study of Compound A in rats
Details: for BR - BRAIN W/STEM organ to terminal body weight ratio mean / HT - HEART organ to terminal body weight ratio mean / KD - KIDNEY organ to terminal body weight ratio mean / LI - LIVER organ to terminal body weight ratio mean / SP - SPLEEN organ to terminal body weight ratio mean / dilated pelves of kidneys, number of animals / TP - TESTIS/EPIDID organ to terminal body weight ratio mean: 30 days oral
Experimental: More specifically, 50 male and 50 female Crl:CoBs® CD(SD) selected from 68 male and 68 female rats (4 weeks old) were used as test animals in the study 1. The rats were housed individually in elevated wire mesh cages with food (Purina Certified Rodent Chow® 5002) and tap water (via an automated watering system) available ad libitum. Each batch of feed utilized was analyzed by the manufacturer for concentrations of specified heavy metals, aflatoxin, chlorinated hydrocarbons, organophosphates, and specified nutrients.
An artificial light cycle of 12 hours light and 12 hours dark was maintained.
The rats were selected for use on the study using a computer-generated weight randomization procedure and assigned to the following groups:
Following randomization, the rats were identified with an ear tag bearing a unique permanent identification number. The rats were randomly assigned to treatment groups by first eliminating the ones with extreme body weights (±2 standard deviations from the mean body weight).
The desired amount of carboxymethyl cellulose was weighed on an appropriate (milligram) balance, transferred to a precalibrated beaker containing two-thirds of the total value of distilled water, and stirred on a magnetic stirrer until a solution formed. Distilled water was then added to final volume and stirred to achieve a 0.5% w/v solution.
Compound A was first ground into a powder. The desired amount for each dose level as weighed on an appropriate (milligram) balance and transferred into a precalibrated beaker. A small amount (0.5 to 4ml) of 0.5% carboxymethyl cellulose was added to Compound A and mixed to form a paste. […] Fresh suspensions of Compound A were prepared daily and fresh solutions of 0.5% carboxymethyl cellulose were prepared weekly and stored refrigerated.
Each rat received Compound A at a dosage factor of 10 milliliters per kilogram of body weight via gavage between 9 a.m. and noon each day. The dosing volume for each rat was calculated and adjusted weekly by the computer from the most recently recorded individual body weight.
Compound A was administered orally.
All rats were observed twice daily for mortality and moribundity. Clinical observations were made prior to dosing and at 1 and 4 hours after dosing. All signs were recorded as they were observed. Individual body weights were recorded at initiation of treatment, at weekly intervals, and at termination while food consumption was recorded weekly.
Following 30 or 31 days of treatment, surviving rats were weighed, anesthetized, and exsanguinated under sodium pentobarbital anesthesia. Complete necropsies were performed on each rat by appropriately trained personnel using procedures approved by board-certified pathologists. Necropsy included examination of the following:
Various organs were weighted and compared to the control, e.g., brain with stem, heart, spleen, kidney, liver, sex organs.

[1] = female, group 5, 1000 mg/kg/day

SMILES: CC(=O)NC(C)C(=O)NCc1ccccc1 (racemic) [compound 1, N-Acetyl-D,L-alanine-N′-benzylamide]
- mean kidney weight (Group 5 males (1000 mg/kg/day × 30 days)): small increase
- BR - BRAIN W/STEM organ to terminal body weight ratio mean (female, group 2, 30 mg/kg/day): .887%
- HT - HEART organ to terminal body weight ratio mean (female, group 2, 30 mg/kg/day): .372%
- KD - KIDNEY organ to terminal body weight ratio mean (female, group 2, 30 mg/kg/day): .773%
- LI - LIVER organ to terminal body weight ratio mean (female, group 2, 30 mg/kg/day): 3.122%
- SP - SPLEEN organ to terminal body weight ratio mean (female, group 2, 30 mg/kg/day): .204%
- BR - BRAIN W/STEM organ to terminal body weight ratio mean (female, group 3, 100 mg/kg/day): .899%
- HT - HEART organ to terminal body weight ratio mean (female, group 3, 100 mg/kg/day): .345%
- KD - KIDNEY organ to terminal body weight ratio mean (female, group 3, 100 mg/kg/day): .768%
- LI - LIVER organ to terminal body weight ratio mean (female, group 3, 100 mg/kg/day): 3.166%
- SP - SPLEEN organ to terminal body weight ratio mean (female, group 3, 100 mg/kg/day): .200%
- BR - BRAIN W/STEM organ to terminal body weight ratio mean (female, group 4, 300 mg/kg/day): .934%
- HT - HEART organ to terminal body weight ratio mean (female, group 4, 300 mg/kg/day): .373%
- KD - KIDNEY organ to terminal body weight ratio mean (female, group 4, 300 mg/kg/day): .770%
- LI - LIVER organ to terminal body weight ratio mean (female, group 4, 300 mg/kg/day): 3.172%
- SP - SPLEEN organ to terminal body weight ratio mean (female, group 4, 300 mg/kg/day): .198%
- BR - BRAIN W/STEM organ to terminal body weight ratio mean [1]: .891%
- HT - HEART organ to terminal body weight ratio mean [1]: .347%
- KD - KIDNEY organ to terminal body weight ratio mean [1]: .763%
- LI - LIVER organ to terminal body weight ratio mean [1]: 3.739* %
- SP - SPLEEN organ to terminal body weight ratio mean [1]: .189%
- dilated pelves of kidneys, number of animals (females, Group 5 (1000 mg/kg/day)): two
- BR - BRAIN W/STEM organ to terminal body weight ratio mean (male, group 2, 30 mg/kg/day): .593%
- HT - HEART organ to terminal body weight ratio mean (male, group 2, 30 mg/kg/day): .313%
- KD - KIDNEY organ to terminal body weight ratio mean (male, group 2, 30 mg/kg/day): .719%
- LI - LIVER organ to terminal body weight ratio mean (male, group 2, 30 mg/kg/day): 2.849%
- SP - SPLEEN organ to terminal body weight ratio mean (male, group 2, 30 mg/kg/day): .172%
- TP - TESTIS/EPIDID organ to terminal body weight ratio mean (male, group 2, 30 mg/kg/day): 1.265%
- BR - BRAIN W/STEM organ to terminal body weight ratio mean (male, group 3, 100 mg/kg/day): .599%
- HT - HEART organ to terminal body weight ratio mean (male, group 3, 100 mg/kg/day): .314%
- KD - KIDNEY organ to terminal body weight ratio mean (male, group 3, 100 mg/kg/day): .694%
- LI - LIVER organ to terminal body weight ratio mean (male, group 3, 100 mg/kg/day): 3.059* %
- SP - SPLEEN organ to terminal body weight ratio mean (male, group 3, 100 mg/kg/day): .166%
- TP - TESTIS/EPIDID organ to terminal body weight ratio mean (male, group 3, 100 mg/kg/day): 1.219%
- dilated pelves of kidneys, number of animals (male, group 3, 100 mg/kg/day): one
- BR - BRAIN W/STEM organ to terminal body weight ratio mean (male, group 4, 300 mg/kg/day): .581%
- HT - HEART organ to terminal body weight ratio mean (male, group 4, 300 mg/kg/day): .328%
- KD - KIDNEY organ to terminal body weight ratio mean (male, group 4, 300 mg/kg/day): .695%
- LI - LIVER organ to terminal body weight ratio mean (male, group 4, 300 mg/kg/day): 3.101* %
- SP - SPLEEN organ to terminal body weight ratio mean (male, group 4, 300 mg/kg/day): .163%
- TP - TESTIS/EPIDID organ to terminal body weight ratio mean (male, group 4, 300 mg/kg/day): 1.212%
- dilated pelves of kidneys, number of animals (male, group 4, 300 mg/kg/day): one
- BR - BRAIN W/STEM organ to terminal body weight ratio mean (male, group 5, 1000 mg/kg/day): .571%
- HT - HEART organ to terminal body weight ratio mean (male, group 5, 1000 mg/kg/day): .343%
- KD - KIDNEY organ to terminal body weight ratio mean (male, group 5, 1000 mg/kg/day): .770%
- LI - LIVER organ to terminal body weight ratio mean (male, group 5, 1000 mg/kg/day): 3.683* %
- SP - SPLEEN organ to terminal body weight ratio mean (male, group 5, 1000 mg/kg/day): .176%
- TP - TESTIS/EPIDID organ to terminal body weight ratio mean (male, group 5, 1000 mg/kg/day): 1.202%
- mean liver weight (males of Groups 4 (300 mg/kg/day × 30 days) and 5 (1000 mg/kg/day × 30 days), Group 5 females): increased
- dilated pelves of kidneys, number of animals (males, Group 5 (1000 mg/kg/day)): three
- Safety Ratio daily dose; MES (rat, oral, 100 mg/kg/day × 30 days vs oral MES ED50): 2.1
- safety ratio, dose to signs of liver enlargement following 30 days medication relative to oral anti-convulsant dose (rats, threshold daily dose 100 mg/kg): 2.1

Reference: USRE38551E1, “Anticonvulsant enantiomeric amino acid derivatives” (priority 1996, dated 2004)
